US9045445B2, “Glycine transporter-1 inhibitors, methods of making them, and uses thereof” (Albany Molecular Research, Inc., priority 2010, dated 2015)
Structures can show the parent of a compound that is named as a salt.

Biological target: T1, glycine transporter-1 (GlyT-1) (Homo sapiens, UniProt P48067)
T1 construct: JAR cells (ATCC#HTB-144), which endogenously express GlyT-1; host or cells: JAR human choriocarcinoma cells
T1 sequence (P48067 1-706): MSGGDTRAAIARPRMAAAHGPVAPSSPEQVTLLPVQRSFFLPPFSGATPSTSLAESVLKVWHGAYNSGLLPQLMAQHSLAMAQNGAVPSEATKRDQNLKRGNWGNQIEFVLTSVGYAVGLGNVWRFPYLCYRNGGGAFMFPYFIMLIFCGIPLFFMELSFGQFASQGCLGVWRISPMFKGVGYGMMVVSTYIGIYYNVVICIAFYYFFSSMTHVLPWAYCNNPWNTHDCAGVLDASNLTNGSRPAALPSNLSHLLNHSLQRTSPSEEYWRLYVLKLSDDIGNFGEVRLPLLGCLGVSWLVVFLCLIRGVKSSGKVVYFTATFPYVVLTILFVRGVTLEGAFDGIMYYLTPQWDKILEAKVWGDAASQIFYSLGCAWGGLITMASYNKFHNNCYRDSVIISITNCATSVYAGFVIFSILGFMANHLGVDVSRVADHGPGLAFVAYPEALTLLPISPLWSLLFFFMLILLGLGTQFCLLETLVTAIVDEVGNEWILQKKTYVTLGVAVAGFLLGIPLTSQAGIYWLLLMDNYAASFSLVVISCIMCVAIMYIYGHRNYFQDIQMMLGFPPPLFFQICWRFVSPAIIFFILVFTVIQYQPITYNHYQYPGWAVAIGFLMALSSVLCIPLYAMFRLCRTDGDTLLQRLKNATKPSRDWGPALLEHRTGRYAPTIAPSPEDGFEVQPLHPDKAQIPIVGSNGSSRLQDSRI
Experiment: [14C]glycine uptake assay in JAR cells endogenously expressing GlyT-1 (scintillation proximity)
Type: cell-based
Details: JAR cells, [14C]glycine 5 μM, 3 hour incubation; read-out: GlyT-1 IC50
Experimental: The inhibitory activity of compounds of the invention against the glycine transporter-1 (GlyT-1) can be determined by the following scintillation proximity assay. The potency of each compound was assessed in inhibiting the uptake of radiolabeled glycine ([^14C]glycine) using the human choriocarcinoma cell line, JAR cells (ATCC#HTB-144), which endogenously express GlyT-1. In brief, 50,000 JARS cells were plated per well of tissue culture treated 96-well Cytostar-T plate (PerkinElmer) in RPMI media supplemented with 10% heat inactivated FBS and allowed to attach overnight at 37° C. and 5% CO2. Compounds were serially diluted 3-fold in DMSO generating a nine (9) data point response curve for each compound. Two replicates were performed per determination. The compounds were then diluted into Uptake Buffer (10 mM Hepes, 120 mM NaCl, 2 mM KCl, 1 mM CaCl2 and 1 mM MgCl2, 5 mM Alanine, pH 7.4) with a final DMSO concentration of 0.75% (v/v). Following the overnight incubation, the media was replaced with Uptake Buffer in the presence or absence of diluted compound and pre-incubated at room temperature for 10 minutes prior to the addition of [^14C]glycine at a final concentration of 5 μM. Following a 3 hour incubation period at 37° C. and 5% CO2, the plates were sealed and placed at room temperature in the dark for 15 minutes prior to quantification of incorporated radioactivity using a MicroBeta Trilux scintillation plate reader (PerkinElmer). Data were fit into a four-parameter model to determine the inhibitor concentration at half-maximal response (IC50). The assay window was established by control wells incubated with [^14C]glycine in the presence or absence of 10 mM non-labeled glycine. A dose response curve for a synthesized reference standard was generated on every plate as a positive control.

How did the IC50 turn out when `CCC(F)(F)S(=O)(=O)N1CCN(C2(CNC(=O)c3ccc(C(F)(F)F)cc3Cl)CCC(F)(F)CC2)CC1` [compound 251, 2-Chloro-N-((1-(4-(1,1-difluoropropylsulfonyl)piperazin-1-yl)-4,4-difluorocyclohexyl)methyl)-4-(trifluoromethyl) benzamide Hydrochloride] was run?
Its IC50 is 987 nM.

Which IC50 does the source give for `CCS(=O)(=O)N1CCN(C2(CNC(=O)c3ccc(C(C)(F)F)cc3Cl)CCC(F)(F)CC2)CC1` [compound 205, 2-Chloro-4-(1,1-difluoroethyl)-N-((1-(4-(ethylsulfonyl)piperazin-1-yl)-4,4-difluorocyclohexyl)methyl) benzamide Hydrochloride] here?
Its IC50 is 187 nM.

With `Cn1cnc(S(=O)(=O)N2CCN(C3(CNC(=O)c4c(F)cccc4OC(F)F)CCC(F)(F)CC3)CC2)c1` [compound 188, N-((4,4-Difluoro-1-(4-(1-methyl-1H-imidazol-4-ylsulfonyl)piperazin-1-yl)cyclohexyl)methyl)-2-(difluoromethoxy)-6-fluorobenzamide Hydrochloride] as the compound, how does the IC50 read?
The IC50 was 1 nM.

With `CCCS(=O)(=O)N1CCN(C2(CNC(=O)c3ccc(C(F)(F)F)cc3F)CCC(F)(F)CC2)CC1` [compound 150, N-((4,4-Difluoro-1-(4-(propylsulfonyl)piperazin-1-yl)cyclohexyl)methyl)-2-fluoro-4-(trifluoromethyl)benzamide Hydrochloride] as the compound, how does the IC50 read?
The IC50 was 61 nM.

`Cn1cnc(S(=O)(=O)N2CCN(C3(CNC(=O)c4c(F)cccc4Cl)CCC(F)(F)CC3)CC2)c1` [compound 180, 2-Chloro-N-((4,4-difluoro-1-(4-(1-methyl-1H-imidazol-4-ylsulfonyl)piperazin-1-yl)cyclohexyl)methyl)-6-fluorobenzamide Hydrochloride] was tested. Which IC50 did it give?
The IC50 was 8 nM.

With `CCCS(=O)(=O)N1CCN(C2(CNC(=O)c3cc(C(F)(F)F)ccc3C(F)(F)F)CCC(F)(F)CC2)CC1` [compound 248, N-((4,4-Difluoro-1-(4-(propylsulfonyl)piperazin-1-yl)cyclohexyl)methyl)-2,5-bis(trifluoromethyl) benzamide Hydrochloride] as the compound, how does the IC50 read?
Its IC50 is 159 nM.

For `O=C(NCC1(N2CCN(S(=O)(=O)N3CCC(F)(F)C3)CC2)CCC(F)(F)CC1)c1ccc(C(F)(F)F)cc1Cl` [compound 272, 2-Chloro-N-((1-(4-(3,3-difluoropyrrolidin-1-ylsulfonyl)piperazin-1-yl)-4,4-difluorocyclohexyl)methyl)-4-(trifluoromethyl) benzamide Hydrochloride], which IC50 is on record?
The IC50 was 1100 nM.

For `Cn1cc(S(=O)(=O)N2CCN(C3(CNC(=O)c4ccc(C(F)(F)F)cc4C(F)(F)F)CCCC3)CC2)nn1` [compound 275, N-((1-(4-(1-Methyl-1H-1,2,3-triazol-4-ylsulfonyl)piperazin-1-yl)cyclopentyl)methyl)-2,4-bis(trifluoromethyl) benzamide Hydrochloride], which IC50 is on record?
Its IC50 is 7 nM.

With `Cn1cnc(S(=O)(=O)N2CCN(C3(CNC(=O)c4ccccc4OC(F)F)CCC(F)(F)CC3)CC2)c1` [compound 183, N-((4,4-Difluoro-1-(4-(1-methyl-1H-imidazol-4-ylsulfonyl)piperazin-1-yl)cyclohexyl)methyl)-2-(difluoromethoxy) benzamide Hydrochloride] as the compound, how does the IC50 read?
The IC50 was 5 nM.

`CCS(=O)(=O)N1CCN(C2(CNC(=O)c3ccc(C(F)(F)F)cc3C(F)(F)F)CCC(F)(F)CC2)C(C)C1` (racemic) [compound 218, (±)-N-((1-(4-(Ethylsulfonyl)-2-methylpiperazin-1-yl)-4,4-difluorocyclohexyl)methyl)-2,4-bis(trifluoromethyl) benzamide Hydrochloride] was tested. Which IC50 did it give?
The IC50 was 86 nM.

With `Cc1cc(F)ccc1C(=O)NCC1(N2CCN(S(=O)(=O)c3cn(C)cn3)CC2)CCC(F)(F)CC1` [compound 184, N-((4,4-Difluoro-1-(4-(1-methyl-1H-imidazol-4-ylsulfonyl)piperazin-1-yl)cyclohexyl)methyl)-4-fluoro-2-methylbenzamide Hydrochloride] as the compound, how does the IC50 read?
Its IC50 is 13 nM.

`Cn1cnc(S(=O)(=O)N2CCN(C3(CNC(=O)c4ccc(F)cc4C(F)(F)F)CCC(F)(F)CC3)CC2)c1` [compound 169, N-((4,4-Difluoro-1-(4-(1-methyl-1H-imidazol-4-ylsulfonyl)piperazin-1-yl)cyclohexyl)methyl)-4-fluoro-2-(trifluoromethyl)benzamide Hydrochloride] was tested. Which IC50 did it give?
Its IC50 is 2 nM.

Which IC50 does the source give for `CCS(=O)(=O)N1CCN(C2(CNC(=O)c3c(F)ccc(Cl)c3F)CCC(F)(F)CC2)CC1` [compound 213, 3-Chloro-N-((1-(4-(ethylsulfonyl)piperazin-1-yl)-4,4-difluorocyclohexyl)methyl)-2,6-difluorobenzamide Hydrochloride] here?
Its IC50 is 875 nM.

Which IC50 does the source give for `CCCS(=O)(=O)N1CCN(C2(CNC(=O)c3c(F)cccc3Cl)CCC(F)(F)CC2)CC1` [compound 156, 2-Chloro-N-((4,4-difluoro-1-(4-(propylsulfonyl)piperazin-1-yl)cyclohexyl)methyl)-6-fluorobenzamide Hydrochloride] here?
Its IC50 is 43 nM.

With `Cn1cnc(S(=O)(=O)N2CCN(C3(CNC(=O)c4ccc(C(F)(F)F)cc4F)CCC(F)(F)CC3)CC2)c1` [compound 170, N-((4,4-Difluoro-1-(4-(1-methyl-1H-imidazol-4-ylsulfonyl)piperazin-1-yl)cyclohexyl)methyl)-2-fluoro-4-(trifluoromethyl)benzamide Hydrochloride] as the compound, how does the IC50 read?
Its IC50 is 14 nM.

For `CCCS(=O)(=O)N1CCN(C2(CNC(=O)c3ccc(C)cc3)CCCCCC2)CC1` [compound 57, 4-Methyl-N-((1-(4-(propylsulfonyl)piperazin-1-yl)cycloheptyl)methyl) benzamide Hydrochloride], which IC50 is on record?
The IC50 was 887 nM.

Which IC50 does the source give for `CC(O)CS(=O)(=O)N1CCN(C2(CNC(=O)c3ccc(C(F)(F)F)cc3Cl)CCC(F)(F)CC2)CC1` (single isomer, unassigned; enantiomer b) [compound 279, (Enantiomer B)-2-Chloro-N-((4,4-difluoro-1-(4-(2-hydroxypropylsulfonyl)piperazin-1-yl)cyclohexyl)methyl)-4-(trifluoromethyl) benzamide Hydrochloride] here?
The IC50 was 68 nM.

With `Cc1cccc(Cl)c1C(=O)NCC1(N2CCN(S(=O)(=O)c3cn(C)cn3)CC2)CCC(F)(F)CC1` [compound 181, 2-Chloro-N-((4,4-difluoro-1-(4-(1-methyl-1H-imidazol-4-ylsulfonyl)piperazin-1-yl)cyclohexyl)methyl)-6-methylbenzamide Hydrochloride] as the compound, how does the IC50 read?
Its IC50 is 2 nM.

With `CCCS(=O)(=O)N1CCN(C2(CNC(=O)c3ccc(Cl)cc3)CCCC2)CC1` [compound 73, 4-Chloro-N-((1-(4-(propylsulfonyl)piperazin-1-yl)cyclopentyl)methyl) benzamide Hydrochloride] as the compound, how does the IC50 read?
Its IC50 is 1990 nM.

How did the IC50 turn out when `CCCS(=O)(=O)N1CCN(C2(CNC(=O)c3c(F)cccc3OC(F)F)CCC(F)(F)CC2)CC1` [compound 250, N-((4,4-Difluoro-1-(4-(propylsulfonyl)piperazin-1-yl)cyclohexyl)methyl)-2-(difluoromethoxy)-6-fluorobenzamide Hydrochloride] was run?
Its IC50 is 24 nM.

For `CCCS(=O)(=O)N1CCN(C2(CNC(=O)c3ccccc3F)CCC(F)(F)CC2)CC1` [compound 131, N-((4,4-Difluoro-1-(4-(propylsulfonyl)piperazin-1-yl)cyclohexyl)methyl)-2-fluorobenzamide Hydrochloride], which IC50 is on record?
The IC50 was 291 nM.

`CCCS(=O)(=O)N1CCN(C2(CNC(=O)c3ccc(Cl)cc3F)CCC(F)(F)CC2)CC1` [compound 143, 4-Chloro-N-((4,4-difluoro-l-(4-(propylsulfonyl)piperazin-1-yl)cyclohexyl)methyl)-2-fluorobenzamide Hydrochloride] was tested. Which IC50 did it give?
Its IC50 is 137 nM.

Which IC50 does the source give for `Cc1ccccc1C(=O)NCC1(N2CCN(S(=O)(=O)c3cn(C)cn3)CC2)CCC(F)(F)CC1` [compound 179, N-((4,4-difluoro-1-(4-(1-methyl-1H-imidazol-4-ylsulfonyl)piperazin-1-yl)cyclohexyl)methyl)-2-methylbenzamide Hydrochloride] here?
Its IC50 is 25 nM.
